From PubChem BioAssay (NCI)
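96-well plates; 48 h exposure; 5 concentrations. Endpoints by linear interpolation between flanking doses. Not reached: highest tested concentration assigned. The concentration for 50% growth inhibition is given as GI50. TGI denotes the concentration required for complete inhibition of growth.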

How the values were obtained:
Experiment in all cases: NCI tumour cell line growth inhibition, 48 h
[1] = tested on: SK-MEL-2 melanoma
[2] = tested on: SK-MEL-5 melanoma
[3] = tested on: OVCAR-3 ovarian
[4] = tested on: SW-620 colon
[5] = tested on: HT29 colon
[6] = tested on: M14 melanoma
[7] = tested on: MCF7 breast
[8] = tested on: NCI-H226 lung
[9] = tested on: EKVX NSCLC
[10] = tested on: OVCAR-5 ovarian
[11] = tested on: MOLT-4 leukemia
[12] = tested on: MDA-MB-435
[13] = tested on: CAKI-1 renal
[14] = tested on: A549 NSCLC
[15] = tested on: A498 renal
[16] = tested on: UACC-62 melanoma
[17] = tested on: HCT-116 colon
[18] = tested on: OVCAR-4 ovarian
[19] = tested on: NCI/ADR-RES ovarian
[20] = tested on: SK-MEL-28 melanoma
[21] = tested on: RPMI-8226 leukemia
[22] = tested on: BT-549 breast
[23] = tested on: NCI-H460 lung
[24] = tested on: T-47D breast
[25] = tested on: COLO 205 colon
[26] = tested on: SN12C renal
[27] = tested on: OVCAR-8 ovarian
[28] = tested on: LOX IMVI melanoma
[29] = tested on: UO-31 renal
[30] = tested on: HCC-2998 colon
[31] = tested on: MALME-3M melanoma
[32] = tested on: SF-539 CNS
[33] = tested on: PC-3 prostate
[34] = tested on: TK-10 renal
[35] = tested on: HCT-15 colon
[36] = tested on: SF-268 CNS
[37] = tested on: SR leukemia
[38] = tested on: U251 CNS
[39] = tested on: NCI-H23 lung
[40] = tested on: HOP-62 NSCLC
[41] = tested on: SF-295 CNS
[42] = tested on: NCI-H522 lung
[43] = tested on: MDA-MB-231 breast
[44] = tested on: DU-145 prostate
[45] = tested on: ACHN renal
[46] = tested on: 786-0 renal
[47] = tested on: IGROV1 ovarian
[48] = tested on: HS 578T breast
[49] = tested on: SNB-19 CNS
[50] = tested on: KM12 colon
[51] = tested on: RXF 393 renal
[52] = tested on: UACC-257 melanoma
[53] = tested on: HOP-92 NSCLC
[54] = tested on: CCRF-CEM leukemia
[55] = tested on: SNB-75 CNS
[56] = tested on: SK-OV-3 ovarian

Cc1cccc2c1[nH]c(=O)c1c3ccccc3cn21
GI50 [1]: 14.4 µM
TGI [1]: > 100 µM
GI50 [2]: 11.7 µM
TGI [2]: 23.9 µM
GI50 [3]: 4.78 µM
TGI [3]: 28.2 µM
GI50 [4]: 5.76 µM
TGI [4]: 17.8 µM
GI50 [5]: 2.16 µM
TGI [5]: 13.1 µM
GI50 [6]: 12.4 µM
TGI [6]: 30.9 µM
TGI [7]: 12.5 µM
GI50 [8]: 3.25 µM
TGI [8]: 27.6 µM
GI50 [9]: 5.61 µM
TGI [9]: 44.6 µM
GI50 [10]: 17.9 µM
TGI [10]: 65.4 µM
GI50 [11]: 1.81 µM
TGI [11]: 5.56 µM
GI50 [12]: 3.14 µM
TGI [12]: 11.6 µM
GI50 [13]: 2.19 µM
TGI [13]: 8.75 µM
GI50 [14]: 4.98 µM
TGI [14]: > 100 µM
GI50 [15]: 16.1 µM
TGI [15]: 42.1 µM
GI50 [16]: 6.87 µM
TGI [16]: 28.1 µM
GI50 [17]: 2.69 µM
TGI [17]: 11.7 µM
GI50 [18]: 6.73 µM
TGI [18]: > 100 µM
GI50 [19]: 12.1 µM
TGI [19]: 34.8 µM
GI50 [20]: 6.86 µM
TGI [20]: > 100 µM
GI50 [21]: 2 µM
TGI [21]: 7.15 µM
GI50 [22]: 12 µM
TGI [22]: 59.2 µM
GI50 [23]: 1.89 µM
GI50 [24]: 11.5 µM
TGI [24]: 48.5 µM
GI50 [25]: 7.33 µM
TGI [25]: 34.8 µM
GI50 [26]: 1.81 µM
TGI [26]: 18.8 µM
GI50 [27]: 3.57 µM
TGI [27]: > 100 µM
GI50 [28]: 6.22 µM
TGI [28]: 18.4 µM
GI50 [29]: 5.66 µM
TGI [29]: > 100 µM
GI50 [30]: 4.6 µM
TGI [30]: 16.3 µM
GI50 [31]: 8.23 µM
TGI [31]: 24.7 µM
GI50 [32]: 3.85 µM
TGI [32]: 15.8 µM
GI50 [33]: 3.9 µM
TGI [33]: 29.3 µM
GI50 [34]: 26.8 µM
TGI [34]: 86.2 µM
GI50 [35]: 5.25 µM
TGI [35]: 31.7 µM
GI50 [36]: 3.03 µM
TGI [36]: 8.49 µM
GI50 [37]: 1.54 µM
TGI [37]: 4.15 µM
GI50 [38]: 6.57 µM
TGI [38]: 19.4 µM
GI50 [39]: 17.2 µM
TGI [39]: 38.6 µM
GI50 [40]: 3.58 µM
TGI [40]: 15.2 µM
GI50 [41]: 2.64 µM
TGI [41]: 25.1 µM
GI50 [42]: 6.52 µM
TGI [42]: 64.1 µM
GI50 [43]: 2.42 µM
TGI [43]: 17.5 µM
GI50 [44]: 5.26 µM
TGI [44]: 17.6 µM
GI50 [45]: 4.08 µM
TGI [45]: 22.5 µM
GI50 [46]: 5.92 µM
TGI [46]: 32.2 µM
GI50 [47]: 3.69 µM
TGI [47]: > 100 µM
GI50 [48]: 21.8 µM
TGI [48]: 64.4 µM
GI50 [49]: 15.6 µM
TGI [49]: 48 µM
GI50 [50]: 3.38 µM
TGI [50]: 22.8 µM
GI50 [51]: 9.19 µM
TGI [51]: 38.4 µM
GI50 [52]: 16.6 µM
TGI [52]: 94.4 µM
GI50 [53]: 3.97 µM
TGI [53]: 32.2 µM
GI50 [54]: 1.2 µM
TGI [54]: 12.6 µM
GI50 [55]: 30.7 µM
TGI [55]: > 100 µM
GI50 [56]: 27.5 µM
TGI [56]: > 100 µM
